Results taken from patent US20180153872A1, “HETEROARYL CARBONITRILES FOR THE TREATMENT OF DISEASE” (OPKO Health, Inc., priority 2015, published 2018).
Values after ≈ are worked out from the molar mass of the structure shown. Values joined by “and” are separate entries in the source; they are usually repeats but may differ in a detail not shown here. Equal entries are not always repeated.

Assays:
Solubility = type: physicochemical; conditions: pH 7, aqueous buffer
Source text: (§1) The present invention comprises a compound having activity in mammalian cough models and is thus useful in the treatment of cough in mammals, including humans, after oral administration. The present invention comprises an oral formulation of a compound of formula I and pharmaceutically acceptable excipients selected from the group consisting of diluents, binders, disintegrants, wetting agents and lubricants. In a preferred embodiment the pharmaceutical composition comprises a compound of formula I (or IIa-IIc) or II and lactose monohydrate, microcrystalline cellulose, povidone, crospovidone, poloxamer 188 and magnesium stearate. The preferred oral form is a capsule. The amount of active ingredient in the capsule or oral dosage form may range from 1 mg to 250 mgs with a preferred range of 10-150 mg with a more preferred range of 20-100 mg per day in humans. The present invention also relates to an NK-1 antagonist (e.g., Formula II) having a half-life of approximately 10-13 days. The present invention further relates to a method of treating pruritus comprising administering a pharmaceutically effective amount of a compound of formula II having a half-life of 10-13 days to a patient in need of treatment thereof. […] The measured onset melting temperature as measured by differential scanning calorimetry (DSC) is 168.9. […]

NK1 receptors [1] = target: NK1 receptors (Mus musculus, UniProt P30548); assay: NK1 receptor radioligand binding, mouse; conditions: no unit, Ki in nM
NK1 receptors (Mus musculus, UniProt P30548), sequence (P30548 whole entry): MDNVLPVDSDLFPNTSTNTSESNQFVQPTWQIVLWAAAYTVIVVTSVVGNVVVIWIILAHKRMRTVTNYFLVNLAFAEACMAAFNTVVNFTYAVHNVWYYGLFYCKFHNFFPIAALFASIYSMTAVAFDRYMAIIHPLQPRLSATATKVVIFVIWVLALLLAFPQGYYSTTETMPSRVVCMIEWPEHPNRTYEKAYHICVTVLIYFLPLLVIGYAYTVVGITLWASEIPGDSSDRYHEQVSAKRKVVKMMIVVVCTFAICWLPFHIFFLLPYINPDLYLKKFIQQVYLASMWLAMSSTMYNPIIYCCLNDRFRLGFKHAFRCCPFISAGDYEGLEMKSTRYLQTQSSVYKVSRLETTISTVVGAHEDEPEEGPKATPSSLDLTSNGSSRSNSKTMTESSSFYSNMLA
Procedure: (§2) SCH900978 was also tested for NK2 and NK3 receptor activity and in 106 other receptors, transporters, enzymes and ion channels and had greater than 1000 fold lower affinity for these than for the NK1 receptor.

[2] = test system: 106 other receptors, transporters, enzymes and ion channels; assay: Panel of 106 other receptors, transporters, enzymes and ion channels; type: binding
Procedure: as §2

Plasma protein binding = type: in vitro ADME; conditions: all mammals tested and human
Source text: (§3) Urinary excretion was also substantial (approximately 20%).

hERG gene current = hERG gene current (Homo sapiens, UniProt Q12809); assay: hERG current inhibition; type: cell-based
hERG gene current, sequence (Q12809 whole entry): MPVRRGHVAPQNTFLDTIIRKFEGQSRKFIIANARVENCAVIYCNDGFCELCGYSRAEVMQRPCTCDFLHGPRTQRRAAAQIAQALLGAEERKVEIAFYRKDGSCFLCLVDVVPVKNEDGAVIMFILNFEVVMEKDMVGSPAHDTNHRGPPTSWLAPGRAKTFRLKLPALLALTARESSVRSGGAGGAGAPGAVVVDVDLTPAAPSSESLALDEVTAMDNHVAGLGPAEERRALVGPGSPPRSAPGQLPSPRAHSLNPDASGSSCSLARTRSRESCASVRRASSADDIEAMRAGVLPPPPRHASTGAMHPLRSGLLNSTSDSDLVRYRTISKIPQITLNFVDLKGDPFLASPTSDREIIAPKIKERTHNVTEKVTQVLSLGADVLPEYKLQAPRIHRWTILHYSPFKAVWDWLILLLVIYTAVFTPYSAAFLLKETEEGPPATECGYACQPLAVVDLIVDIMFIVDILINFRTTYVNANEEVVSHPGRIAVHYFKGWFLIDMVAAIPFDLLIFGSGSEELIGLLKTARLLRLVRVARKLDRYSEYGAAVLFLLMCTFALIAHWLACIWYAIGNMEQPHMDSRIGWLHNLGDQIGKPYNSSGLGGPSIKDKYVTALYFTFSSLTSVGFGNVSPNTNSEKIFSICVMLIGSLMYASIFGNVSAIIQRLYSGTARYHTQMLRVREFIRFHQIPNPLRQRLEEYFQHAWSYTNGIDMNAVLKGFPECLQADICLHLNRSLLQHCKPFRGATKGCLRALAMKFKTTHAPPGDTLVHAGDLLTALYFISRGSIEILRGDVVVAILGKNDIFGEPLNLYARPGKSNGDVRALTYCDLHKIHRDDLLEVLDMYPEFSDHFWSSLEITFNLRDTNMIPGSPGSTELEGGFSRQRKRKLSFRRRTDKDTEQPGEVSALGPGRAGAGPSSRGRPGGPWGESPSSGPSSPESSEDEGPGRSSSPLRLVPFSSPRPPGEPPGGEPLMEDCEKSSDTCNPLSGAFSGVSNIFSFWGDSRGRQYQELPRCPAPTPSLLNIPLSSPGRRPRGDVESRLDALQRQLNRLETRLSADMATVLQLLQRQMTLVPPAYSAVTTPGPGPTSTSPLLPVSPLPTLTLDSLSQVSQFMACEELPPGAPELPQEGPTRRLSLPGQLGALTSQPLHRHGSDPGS
Procedure: A series of in vitro and in vivo studies examined the effects of SCH900978 on cardiovascular, respiratory and CNS functions. No adverse effects were observed. The NOAEL was ≥25 mg/kg in male rats, ≥12.5 mg/kg in female rats and ≥10 mg/kg in male cynomolgus monkeys; each dose was the highest dose tested.

[3] = Metabolic pathways in the mammals tested; type: in vivo
Source text: as §3

NK1 receptors [4] = target: NK1 receptors (Rattus norvegicus, UniProt P14600); assay: NK1 receptor radioligand binding, rat; conditions: no unit, Ki in nM
NK1 receptors (Rattus norvegicus, UniProt P14600), sequence (P14600 whole entry): as the sequence (P30548 whole entry) above, with V7M, T15I, I266V, D367E counted along it
Procedure: as §2

[5] = Brain penetration, gerbils; type: in vivo, gerbil
Procedure: as §3
The extent of brain penetration by SCH 900978 was evaluated after oral administration of SCH 900978 amorphous hydrochloride to female gerbils (0.1 mg/kg), male Sprague Dawley rats (5 mg/kg), and male guinea pigs (0.3 mg/kg).

NK3 receptor = target: T1, NK3 receptor (Homo sapiens, UniProt P29371); assay: NK3 receptor affinity; type: binding
T1 sequence (P29371 1-465): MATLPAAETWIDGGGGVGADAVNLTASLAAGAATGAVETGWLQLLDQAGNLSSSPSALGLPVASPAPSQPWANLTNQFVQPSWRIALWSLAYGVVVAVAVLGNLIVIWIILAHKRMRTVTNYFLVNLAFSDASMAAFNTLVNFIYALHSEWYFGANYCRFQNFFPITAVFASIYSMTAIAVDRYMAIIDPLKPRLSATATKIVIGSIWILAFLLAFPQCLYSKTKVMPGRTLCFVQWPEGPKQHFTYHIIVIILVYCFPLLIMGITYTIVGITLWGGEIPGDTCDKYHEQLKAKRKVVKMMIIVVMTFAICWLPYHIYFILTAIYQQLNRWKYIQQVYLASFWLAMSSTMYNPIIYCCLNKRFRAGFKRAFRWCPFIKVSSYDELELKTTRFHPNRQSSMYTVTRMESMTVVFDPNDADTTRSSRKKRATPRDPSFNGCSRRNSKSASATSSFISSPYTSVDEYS
Source text: A compound of formula I (also designated SCH 900978) is a potent, selective, competitive neurokinin-1 (NK-1) receptor antagonist that is effective as an oral administered drug for the treatment of cough and meets this unmet medical need. In addition, this drug is effective for the treatment of overactive bladder (OAB) and other selected indications including major depression and alcohol dependency. […] The present invention comprises a compound of formula I having an effective dose for 90% inhibition [ED90]=0.2 mg/kg as determined in an in vivo pharmacodynamic model of NK1 receptor activity (gerbil foot thumping).
as §2

log D, octanol/water = type: physicochemical; conditions: pH 7.4, octanol/water system
Source text: as §1

[6] = Plasma concentration after oral dose in dogs; type: in vivo; conditions: dog, 0.3 mg/kg oral
Procedure: The antitussive activity of SCH 900978 was also evaluated against cough induced by mechanical stimulation of the intrathoracic trachea in anesthetized dogs. Cough was measured in each stimulation trial by the cough frequency (number of coughs) and cough amplitude (cm H2O increase in expiratory pressure). […] Plasma concentration of SCH900978 at 2, 6 and 25 hours after administration of the 0.3 mg/kg dose to dogs were 201, 151 and 102 ng/mL (373, 280 and 189 nM), respectively.

With `C[C@@H](OC[C@@]1(c2ccccc2)CC[C@](C#N)(n2cn[nH]c2=O)CN1)c1cc(C(F)(F)F)cc(C(F)(F)F)c1` [Compound 42, (3 S,6S)-6-({(1R)-1-[3,5-bis(trifluoromethyl)phenyl]ethoxy}methyl)-3-(5-oxo-1,5dihydro-4H-1,2,4-triazol-4-yl)-6-phenylpiperidine-3-carbonitrile] the solubility (Solubility) was 1.8 µg/mL (≈ 3.34 µM), the Ki (NK1 receptors [1]) was 0.76 nM and the “affinity for a battery of other receptors, transporters, enzymes or ion channels” value [2] was “does not have significant affinity”. For the same compound, the “fold lower affinity than for the NK1 receptor” value ([2]; 106 other receptors, transporters, enzymes and ion channels vs NK1) was “greater than 1000 fold”, the protein bound (Plasma protein binding) was ≥ 99.6% and the IC50 (hERG gene current) was 860 nM. The major metabolic pathways [3] was “oxidation and glucuronidation”, the Ki (NK1 receptors [4]) was 4.62 nM and the “crossing of the blood brain barrier” value [5] was “readily crossed the blood brain barrier”. The Ki (NK3 receptor) was > 1000 nM, the “fold lower affinity than for the NK1 receptor” value (NK3 receptor; NK3 vs NK1) was “greater than 1000 fold” and the logD (log D, octanol/water) was 4.5. The concentration at 2 h ([6]; 2 hours) was 201 ng/mL and 373 nM, the concentration at 6 h ([6]; 6 hours) was 151 ng/mL and 280 nM and the concentration at 25 h ([6]; 25 hours) was 102 ng/mL and 189 nM.
